Laboratory results published in patent US20090149417A1, “Methods and compositions for the treatment of cancer using benzopyrone-type PARP inhibitors” (priority 2007, published 2009).

Key:
[1] = test system: eight pancreatic cancer cells; assay: BrdU-ELISA proliferation assay, IIIg alone and with oxaliplatin; type: cell-based, human
Method: The effect of IIIg alone and in combination with oxaliplatin on the proliferation of eight pancreatic cancer cells is determined using a BrdU-ELISA assay.
Assessment of synergy is performed according to the method described by Chou and Talalay.

[2] = test system: Colo375FG metastatic pancreatic adenocarcinoma cells; assay: Bromodeoxyuridine (BrdU) labeling assay (flow cytometry); type: cell-based, human
Method: 50 μl of BrdU (Sigma Chemical Co., St. Louis, Mo.) stock solution (1 mM) is added to give 10 μM BrdU final concentration. The cells are incubated for 30 min at 37° C. and fixed in ice-cold 70% ethanol and stored in a cold room (4° C.) overnight. Fixed cells are centrifuged and washed once in 2 ml PBS, then resuspended in 0.7 ml of denaturation solution (0.2 mg/ml pepsin in 2 N HCl) for 15 min at 37° C. in the dark and suspended with 1.04 ml 1M Tris buffer (Trizma base, Sigma Chemical Co.) to terminate the hydrolysis and washed in 2 ml PBS.
(§1) Cells are resuspended in 100-μl anti-BrdU antibody (DakoCytomation, Carpinteria, Calif.) with 1:100 dilution in TBFP permeable buffer (0.5% Tween-20, 1% bovine serum albumin and 1% fetal bovine serum in PBS) and incubated for 25 min at room temperature in the dark and washed in 2 ml PBS. The primary antibody-labeled cells are resuspended in 100 μl Alexa Fluor F(ab′)2 fragment of goat anti-mouse IgG (H+L) (2 mg/mL) (Molecular Probes, Eugene, Oreg.) with 1:200 dilution in TBFP permeable buffer and incubated for 25 min at room temperature in the dark and washed in 2 ml PBS, then resuspended in 0.5 ml ice-cold PBS containing 1 μg/ml 4′,6-diamidino-2-phenylindole (DAPI) for at least 30 min. All cell samples are analyzed with a BD LSR II (BD Biosciences, San Jose, Calif.).
as §1, with “50 μl of BrdU (Sigma Chemical Co., St. Louis, Mo.) stock solution (1 mM) is added to give 10 μM BrdU final concentration. The cells are incubated for 30 min at 37 °C and fixed in ice-cold 70% ethanol and stored in a cold room (4 °C) overnight. Fixed cells are centrifuged and washed once in 2 ml PBS, then resuspended in 0.7 ml of denaturation solution (0.2 mg/ml pepsin in 2 N HCl) for 15 min at 37° C. in the dark and suspended with 1.04 ml 1M Tris buffer (Trizma base, Sigma Chemical Co.) and washed in 2 ml PBS. Then cells” for “Cells”

malignant cancer cells = details: malignant versus nonmalignant cells; Kirsten E, Kun E, Int J Mol Med 2000; cited from earlier work
[3] = test system: human tumor cells including pancreatic, breast, uterine, lung, prostate, and ovarian cancer cells; assay: Proliferation of human tumor cells in vitro (summary); type: cell-based

| SMILES | IC50 ([1]; Homo sapiens, Pancreatic cancer cell, IIIg alone, range over eight PC cell lines, read-out: IC50 (growth of eight PC cell lines)) | Potentiation of oxaliplatin cytotoxicity ([1]; different pancreatic cancer cell models) | S-phase % BrdU+ ([2]; IIIg 2.5 μM, OxaliPt 0 μM) | S-phase % BrdU+ ([2]; IIIg 12.5 μM, OxaliPt 0 μM) | S-phase % BrdU+ ([2]; IIIg 25 μM, OxaliPt 0 μM) | Proliferation (percentage of BrdU positive cells) ([2]; combination of IIIg and oxaliplatin) | S-phase % BrdU+ ([2]; combination: IIIg 2.5 μM + OxaliPt 10 μM) | S-phase % BrdU+ ([2]; combination: IIIg 2.5 μM + OxaliPt 20 μM) | S-phase % BrdU+ ([2]; combination: IIIg 12.5 μM + OxaliPt 10 μM) | S-phase % BrdU+ ([2]; combination: IIIg 12.5 μM + OxaliPt 20 μM) | S-phase % BrdU+ ([2]; combination: IIIg 25 μM + OxaliPt 10 μM) | S-phase % BrdU+ ([2]; combination: IIIg 25 μM + OxaliPt 20 μM) | Selective cytotoxicity (malignant cancer cells) | Proliferation of human tumor cells [3] | Cells in S-phase of cell cycle (% BrdU+) ([2]; Compound IIIc 0 mM, OxaliPt 10 mM) | S-phase % BrdU+ ([2]; IIIg 0 μM, OxaliPt 10 μM) | S-phase % BrdU+ ([2]; IIIg 0 μM, OxaliPt 20 μM) |
| --- | --- | --- | --- | --- | --- | --- | --- | --- | --- | --- | --- | --- | --- | --- | --- | --- | --- |
| O=c1ccc2c(I)c([N+](=O)[O-])ccc2o1 [IIIg, 5-iodo-6-nitro-benzopyrone] | 5 to 10 µM | potentiates oxaliplatin cytotoxicity | 94.89% | 93.1% | 75.18% | inhibits the proliferation | 86.3% | 65.32% | 67.5% | 33% | 24.69% | 33.85% | selective cytotoxicity upon malignant cancer cells but not upon nonmalignant cells | inhibits the proliferation | – | – | – |
| O=C1[O][Pt]2([NH][C@@H]3CCCC[C@H]3[NH]2)[O]C1=O [OxaliPt, oxaliplatin, reference compound] | – | – | – | – | – | – | – | – | – | – | – | – | – | – | 81.74% | 81.74% | 63.12% |
